Results on ten compounds are retold here after ChEMBL document CHEMBL1127727, “Synthesis and structure-activity relationships of novel retinoid X receptor-selective retinoids” (J Med Chem, 1994).

Assay [1] has as its target T1, Retinoic acid receptor RXR-beta (Mus musculus, UniProt P28704).
T1 sequence (P28704 whole entry): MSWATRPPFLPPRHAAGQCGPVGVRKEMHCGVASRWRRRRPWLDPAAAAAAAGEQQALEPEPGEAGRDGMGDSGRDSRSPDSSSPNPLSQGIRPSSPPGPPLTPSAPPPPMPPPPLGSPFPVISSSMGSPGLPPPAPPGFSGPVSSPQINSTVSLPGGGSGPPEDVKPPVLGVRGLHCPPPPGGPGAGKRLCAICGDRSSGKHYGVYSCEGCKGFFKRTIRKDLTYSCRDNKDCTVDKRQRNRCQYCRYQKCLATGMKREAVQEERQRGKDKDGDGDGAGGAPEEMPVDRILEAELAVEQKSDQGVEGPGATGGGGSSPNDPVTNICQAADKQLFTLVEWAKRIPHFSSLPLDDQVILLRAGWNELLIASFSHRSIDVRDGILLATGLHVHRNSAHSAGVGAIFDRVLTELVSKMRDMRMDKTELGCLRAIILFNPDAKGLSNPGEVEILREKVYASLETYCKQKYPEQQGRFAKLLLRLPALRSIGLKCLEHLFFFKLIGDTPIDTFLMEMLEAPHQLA
The experiment in a line: Inhibition of [3H]9-cis-RA binding to baculovirus expressed retinoid receptor RXR beta.

Assay [2] concerns the target T2, Retinoic acid receptor beta (Homo sapiens, UniProt P10826).
T2 sequence (P10826 whole entry): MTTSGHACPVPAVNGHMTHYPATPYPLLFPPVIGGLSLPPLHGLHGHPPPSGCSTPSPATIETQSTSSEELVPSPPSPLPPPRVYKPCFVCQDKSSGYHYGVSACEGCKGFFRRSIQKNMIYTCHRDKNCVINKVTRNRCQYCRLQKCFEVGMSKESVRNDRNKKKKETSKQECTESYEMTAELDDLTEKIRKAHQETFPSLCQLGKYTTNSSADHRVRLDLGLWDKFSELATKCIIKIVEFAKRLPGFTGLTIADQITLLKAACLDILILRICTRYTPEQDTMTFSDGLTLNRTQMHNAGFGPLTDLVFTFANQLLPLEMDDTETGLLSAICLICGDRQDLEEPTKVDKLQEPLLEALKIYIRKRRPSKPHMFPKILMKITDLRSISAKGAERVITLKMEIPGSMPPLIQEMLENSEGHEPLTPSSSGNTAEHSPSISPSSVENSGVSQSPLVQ
The experiment in a line: Effective concentration against retinoid receptor isoform (RAR beta) expressed in CV-1 cells. It is filed as cell-based.

Assay [3] deals with T3, Retinoic acid receptor gamma (Homo sapiens, UniProt P13631).
T3 sequence (P13631 whole entry): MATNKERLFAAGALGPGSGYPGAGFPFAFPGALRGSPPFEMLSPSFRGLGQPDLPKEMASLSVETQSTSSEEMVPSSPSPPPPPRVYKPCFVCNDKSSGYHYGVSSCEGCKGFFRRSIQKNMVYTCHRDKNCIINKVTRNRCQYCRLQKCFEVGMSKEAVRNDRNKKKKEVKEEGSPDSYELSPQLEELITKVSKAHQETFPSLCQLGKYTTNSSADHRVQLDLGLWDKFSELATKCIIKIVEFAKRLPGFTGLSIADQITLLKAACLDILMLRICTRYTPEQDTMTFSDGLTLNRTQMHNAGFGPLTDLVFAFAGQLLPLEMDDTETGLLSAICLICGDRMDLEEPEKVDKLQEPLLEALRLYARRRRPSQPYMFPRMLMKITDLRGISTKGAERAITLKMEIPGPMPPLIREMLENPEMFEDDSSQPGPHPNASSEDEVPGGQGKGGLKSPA
Briefly: Tested for binding affinity against [3H]-ATRA binding to retinoid receptor isoform (RAR gamma) expressed in baculovirus.

Assay [4] deals with T4, Retinoic acid receptor alpha (Homo sapiens, UniProt P10276).
T4 sequence (P10276 whole entry): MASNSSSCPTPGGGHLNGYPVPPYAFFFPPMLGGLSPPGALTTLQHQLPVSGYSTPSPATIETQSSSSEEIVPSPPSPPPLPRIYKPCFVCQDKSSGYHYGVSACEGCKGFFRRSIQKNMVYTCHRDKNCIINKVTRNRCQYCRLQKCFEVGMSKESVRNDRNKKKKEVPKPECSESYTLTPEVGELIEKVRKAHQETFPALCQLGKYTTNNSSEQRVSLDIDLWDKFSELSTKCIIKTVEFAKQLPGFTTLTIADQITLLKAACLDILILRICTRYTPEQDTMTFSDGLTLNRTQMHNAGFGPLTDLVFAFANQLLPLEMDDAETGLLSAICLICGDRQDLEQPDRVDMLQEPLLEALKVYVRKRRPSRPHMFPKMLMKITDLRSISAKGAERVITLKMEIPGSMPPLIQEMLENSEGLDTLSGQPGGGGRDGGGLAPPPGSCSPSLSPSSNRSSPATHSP
The experiment in a line: Inhibition of [3H]-ATRA binding to baculovirus expressed retinoid receptor RAR alpha.

For assay [5], the target named is T5, Retinoic acid receptor RXR-alpha (Homo sapiens, UniProt P19793).
T5 sequence (P19793 whole entry): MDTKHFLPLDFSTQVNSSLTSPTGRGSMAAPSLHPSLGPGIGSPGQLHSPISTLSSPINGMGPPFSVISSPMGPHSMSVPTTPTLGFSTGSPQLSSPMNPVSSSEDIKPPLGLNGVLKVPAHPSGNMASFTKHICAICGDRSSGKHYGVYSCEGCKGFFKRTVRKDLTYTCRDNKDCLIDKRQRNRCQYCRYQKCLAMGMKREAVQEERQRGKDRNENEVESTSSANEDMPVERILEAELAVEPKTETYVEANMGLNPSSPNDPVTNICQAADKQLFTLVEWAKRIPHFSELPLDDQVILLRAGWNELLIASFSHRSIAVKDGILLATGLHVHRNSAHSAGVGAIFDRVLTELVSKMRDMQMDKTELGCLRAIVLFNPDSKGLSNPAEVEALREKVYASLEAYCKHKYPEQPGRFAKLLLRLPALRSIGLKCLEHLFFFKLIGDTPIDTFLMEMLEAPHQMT
Description: Inhibition of [3H]9-cis-RA binding to baculovirus expressed retinoid receptor RXR alpha

Assay [6] deals with T2, Retinoic acid receptor beta. The experiment in a line: Inhibition of [3H]ATRA binding to baculovirus expressed retinoid receptor RAR beta.
Assay [7] concerns the target T4, Retinoic acid receptor alpha. The experiment in a line: Effective concentration against retinoid receptor isoform (RAR alpha) expressed in CV-1 cells. It is filed as cell-based.
Assay [8] has as its target T5, Retinoic acid receptor RXR-alpha. The source holds these as a separate data set.
Description: Effective concentration against retinoid receptor isoform (RXR alpha) expressed in CV-1 cells
Assay [9] addresses T1, Retinoic acid receptor RXR-beta. Briefly: Effective concentration against retinoid receptor isoform (RXR beta) expressed in CV-1 cells. It is filed as cell-based.
In assay [10] the target is T6, Retinoic acid receptor RXR-gamma (Mus musculus, UniProt P28705).
T6 sequence (P28705 whole entry): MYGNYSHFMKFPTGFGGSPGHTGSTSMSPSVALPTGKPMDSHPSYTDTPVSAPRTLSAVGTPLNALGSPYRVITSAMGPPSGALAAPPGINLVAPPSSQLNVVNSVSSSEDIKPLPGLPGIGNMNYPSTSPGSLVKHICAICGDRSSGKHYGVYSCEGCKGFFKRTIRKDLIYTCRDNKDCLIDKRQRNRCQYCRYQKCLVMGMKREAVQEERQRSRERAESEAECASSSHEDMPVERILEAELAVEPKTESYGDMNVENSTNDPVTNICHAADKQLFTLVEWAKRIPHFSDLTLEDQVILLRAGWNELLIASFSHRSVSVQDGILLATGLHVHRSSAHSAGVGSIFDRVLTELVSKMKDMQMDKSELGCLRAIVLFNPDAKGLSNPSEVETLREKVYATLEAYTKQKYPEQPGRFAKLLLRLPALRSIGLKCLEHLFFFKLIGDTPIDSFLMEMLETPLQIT
Briefly: Effective concentration against retinoid receptor isoform (RXR gamma) expressed in CV-1 cells. It is filed as cell-based.

Assay [11] concerns the target T3, Retinoic acid receptor gamma. The experiment in a line: Effective concentration against retinoid receptor isoform (RAR gamma) expressed in CV-1 cells. It is filed as cell-based.
Assay [12] deals with T6, Retinoic acid receptor RXR-gamma. The experiment in a line: Inhibition of [3H]9-cis-RA binding to baculovirus expressed retinoid receptor RXR gamma.

For `C=C(c1ccc(C(=O)O)cc1)c1cc2c(cc1CCC)C(C)(C)CCC2(C)C`, the Kd – broadly, the concentration at which binding is half-saturated – in assay [1] was 236 nM; in assay [3] it was more than 1000 nM; in assay [4], more than 1000 nM; in assay [5] it was 137 nM; in assay [6], more than 1000 nM; in [12], 332 nM. In addition, the concentration for a half-maximal effect (EC50) in assay [2], in assay [7], in assay [8], in [9], in assay [10] and in assay [11] was more than 10000 nM in each case.
On to `CC(C)c1cc2c(cc1C(=O)c1ccc(C(=O)O)cc1)C(C)(C)CCC2(C)C`, for which the Kd in assay [1] was 155 nM; in assay [3] it was more than 1000 nM; in [4], more than 1000 nM; in assay [5], 113 nM; in assay [6] it was more than 1000 nM; in assay [12], 309 nM. Besides, the EC50 – broadly, the concentration giving half of the maximal effect – in [2] is more than 10000 nM; in assay [7], more than 10000 nM; in [8], 381 nM; in [9], 313 nM; in assay [10], 357 nM; in assay [11], more than 10000 nM.
As to `CC1(C)CCC(C)(C)c2cc(C(=O)c3ccc(C(=O)O)cc3)c(Br)cc21`, the dissociation constant Kd in [1] was 150 nM; in assay [3], more than 1000 nM; in assay [4], more than 1000 nM; in assay [5] it was 105 nM; in [6], more than 1000 nM; in [12], 150 nM. In addition, the EC50 in assay [2] is more than 10000 nM; in [7], more than 10000 nM; in assay [8] it was 332 nM; in assay [9], 120 nM; in assay [10] it was 261 nM; in [11] it was more than 10000 nM.
On to `CC1(C)CCC(C)(C)c2cc(C(=O)c3ccc(C(=O)O)cc3)c(Cl)cc21`, for which the Kd in [1] was 110 nM; in [3], more than 1000 nM; in [4], more than 1000 nM; in [5] it was 130 nM; in assay [6], more than 1000 nM; in assay [12], 135 nM. In addition, the EC50 in assay [2] is more than 10000 nM; in assay [7], more than 10000 nM; in assay [8], 294 nM; in assay [9], 262 nM; in assay [10], 225 nM; in assay [11] it was more than 10000 nM.
For the compound `COc1cc2c(cc1C(=O)c1ccc(C(=O)O)cc1)C(C)(C)CCC2(C)C`, the Kd in [1], in assay [3], in assay [4], in [5], in assay [6] and in assay [12] was more than 1000 nM in each case. The concentration giving a half-maximal response (EC50) is more than 10000 nM in assay [2]; more than 10000 nM in assay [7]; 2020 nM in assay [8]; 2200 nM in assay [9]; 2190 nM in [10]; more than 10000 nM in assay [11].
`CC1(C)CCC(C)(C)c2cc(C(=O)c3ccc(C(=O)O)cc3)c(F)cc21`: the Kd in [1] was 902 nM; in assay [3] it was more than 1000 nM; in assay [4], more than 1000 nM; in assay [5] it was 706 nM; in [6] it was more than 1000 nM; in assay [12] it was 911 nM. The EC50 is 395 nM in [2]; 2860 nM in [7]; 1820 nM in assay [8]; 1980 nM in assay [9]; 2250 nM in [10]; 1020 nM in [11].
For the compound `C=C(c1ccc(C(=O)O)cc1)c1ccc2c(c1)C(C)(C)CCC2(C)C`, the Kd in [1] is 199 nM; in assay [3], 887 nM; in assay [4] it was 944 nM; in assay [5], 150 nM; in assay [6], 909 nM; in assay [12] it was 290 nM. Also, the EC50 in assay [2] was 304 nM; in [7], more than 10000 nM; in [8] it was 409 nM; in assay [9] it was 486 nM; in assay [10], 404 nM; in assay [11], 266 nM.
As for `CCc1cc2c(cc1C(=O)c1ccc(C(=O)O)cc1)C(C)(C)CCC2(C)C`, the dissociation constant (Kd) in [1] is 232 nM; in assay [3], more than 1000 nM; in [4] it was more than 1000 nM; in assay [5] it was 195 nM; in assay [6], more than 1000 nM; in [12], 424 nM. Moreover, the EC50 in assay [2] is more than 10000 nM; in assay [7], more than 10000 nM; in assay [8], 514 nM; in assay [9], 810 nM; in [10], 384 nM; in assay [11], more than 10000 nM.
For `CCCc1cc2c(cc1C(=O)c1ccc(C(=O)O)cc1)C(C)(C)CCC2(C)C`, the dissociation constant Kd in assay [1] is 371 nM; in assay [3], more than 1000 nM; in assay [4], more than 1000 nM; in assay [5], 269 nM; in assay [6], more than 1000 nM; in assay [12] it was 704 nM. In addition, the EC50 in assay [2], in assay [7], in assay [8], in [9], in assay [10] and in [11] was more than 10000 nM in each case.
For `C=C(c1ccc(C(=O)O)cc1)c1cc2c(cc1C(C)C)C(C)(C)CCC2(C)C`, the dissociation constant (Kd) in assay [1] is 75 nM; in assay [3] it was more than 1000 nM; in [4], more than 1000 nM; in assay [5] it was 55 nM; in assay [6], more than 1000 nM; in assay [12], 142 nM. Further, the concentration for a half-maximal effect (EC50) in assay [2] is more than 10000 nM; in assay [7] it was more than 10000 nM; in assay [8], 207 nM; in [9], 289 nM; in [10], 227 nM; in assay [11] it was more than 10000 nM.
